Data published in the supplement of paper PMC10307832.

Assays:
Assay in all cases: relative viability (nuclei count vs DMSO), 5 days (fraction); higher = more cells survive
NCI-H1355 = system: NCI-H1355
How it was run: (§1)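 Dosing by pin tool came one day after lung cancer cell lines were seeded in 1536-well plates, using either one drug or a fixed anchor-drug dose plus five library-drug doses (not always all listed) in √10 steps. After 5 days, nuclei were counted on 4× images. Relative viability is treated-well nuclei count divided by vehicle-well nuclei count, and values are medians of duplicate plates.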

COR-L23 = system: COR-L23
How it was run: as §1

NCI-H2023 = system: NCI-H2023
How it was run: as §1

PC-14 = system: PC-14
How it was run: as §1

LC-2-ad = system: LC-2-ad
How it was run: as §1

HCC-44 = system: HCC-44
How it was run: as §1

NCI-H838 = system: NCI-H838
How it was run: as §1

ABC-1 = system: ABC-1
How it was run: as §1

HARA = system: HARA
How it was run: as §1

NCI-H2085 = system: NCI-H2085
How it was run: as §1

HOP-62 = system: HOP-62
How it was run: as §1

HCC-15 = system: HCC-15
How it was run: as §1

UMC-11 = system: UMC-11
How it was run: as §1

NCI-H2126 = system: NCI-H2126
How it was run: as §1

SW 1573 = system: SW 1573
How it was run: as §1

NCI-H1651 = system: NCI-H1651
How it was run: as §1

EPLC-272H = system: EPLC-272H
How it was run: as §1

NCI-H2347 = system: NCI-H2347
How it was run: as §1

NCI-H1915 = system: NCI-H1915
How it was run: as §1

LU99A = system: LU99A
How it was run: as §1

NCI-H650 = system: NCI-H650
How it was run: as §1

NCI-H1993 = system: NCI-H1993
How it was run: as §1

NCI-H358 = system: NCI-H358
How it was run: as §1

With `O=c1cc(N2CCOCC2)oc2c(-c3cccc4c3sc3ccccc34)cccc12` + N=C(N)NC(=N)NCCc1ccccc1 [Phenformin] (partner 250 µM) the relative viability (NCI-H1355; first compound 0.01 µM) was 0.45, the relative viability (NCI-H1355; first compound 0.03162 µM) was 0.446 and the relative viability (NCI-H1355; first compound 0.1 µM) was 0.316. It also gave a relative viability (NCI-H1355; first compound 0.3162 µM) of 0.447, a relative viability (NCI-H1355; first compound 1 µM) of 0.42 and a relative viability (COR-L23; first compound 0.01 µM) of 0.439. For the same compound, the relative viability (COR-L23; first compound 0.03162 µM) was 0.466, the relative viability (COR-L23; first compound 0.1 µM) was 0.43 and the relative viability (COR-L23; first compound 0.3162 µM) was 0.411. It also gave a relative viability (COR-L23; first compound 1 µM) of 0.449, a relative viability (NCI-H2023; first compound 0.01 µM) of 0.424 and a relative viability (NCI-H2023; first compound 0.03162 µM) of 0.397. The relative viability (NCI-H2023; first compound 0.1 µM) was 0.482, the relative viability (NCI-H2023; first compound 0.3162 µM) was 0.425 and the relative viability (NCI-H2023; first compound 1 µM) was 0.385. The relative viability (PC-14; first compound 0.01 µM) was 0.292, the relative viability (PC-14; first compound 0.03162 µM) was 0.758 and the relative viability (PC-14; first compound 0.1 µM) was 0.428. For the same compound, the relative viability (PC-14; first compound 0.3162 µM) was 0.902, the relative viability (PC-14; first compound 1 µM) was 0.361 and the relative viability (LC-2-ad; first compound 0.01 µM) was 0.624. The relative viability (LC-2-ad; first compound 0.03162 µM) was 0.592, the relative viability (LC-2-ad; first compound 0.1 µM) was 0.614 and the relative viability (LC-2-ad; first compound 0.3162 µM) was 0.547. The relative viability (LC-2-ad; first compound 1 µM) was 0.534, the relative viability (HCC-44; first compound 0.01 µM) was 0.249 and the relative viability (HCC-44; first compound 0.03162 µM) was 0.187. The relative viability (HCC-44; first compound 0.1 µM) was 0.134, the relative viability (HCC-44; first compound 0.3162 µM) was 0.366 and the relative viability (HCC-44; first compound 1 µM) was 0.139. It also gave a relative viability (NCI-H838; first compound 0.01 µM) of 0.473, a relative viability (NCI-H838; first compound 0.03162 µM) of 0.547 and a relative viability (NCI-H838; first compound 0.1 µM) of 0.534. The relative viability (NCI-H838; first compound 0.3162 µM) was 0.6, the relative viability (NCI-H838; first compound 1 µM) was 0.543 and the relative viability (ABC-1; first compound 0.01 µM) was 0.228. It also gave a relative viability (ABC-1; first compound 0.03162 µM) of 0.258, a relative viability (ABC-1; first compound 0.1 µM) of 0.225 and a relative viability (ABC-1; first compound 0.3162 µM) of 0.28. The relative viability (ABC-1; first compound 1 µM) was 0.266, the relative viability (HARA; first compound 0.01 µM) was 0.414 and the relative viability (HARA; first compound 0.03162 µM) was 0.472. The relative viability (HARA; first compound 0.1 µM) was 0.416, the relative viability (HARA; first compound 0.3162 µM) was 0.502 and the relative viability (HARA; first compound 1 µM) was 0.482. The relative viability (NCI-H2085; first compound 0.01 µM) was 0.713, the relative viability (NCI-H2085; first compound 0.03162 µM) was 0.708 and the relative viability (NCI-H2085; first compound 0.1 µM) was 0.625. It also gave a relative viability (NCI-H2085; first compound 0.3162 µM) of 0.745, a relative viability (NCI-H2085; first compound 1 µM) of 0.734 and a relative viability (HOP-62; first compound 0.01 µM) of 0.555. The relative viability (HOP-62; first compound 0.03162 µM) was 0.735, the relative viability (HOP-62; first compound 0.1 µM) was 0.671 and the relative viability (HOP-62; first compound 0.3162 µM) was 0.575. It also gave a relative viability (HOP-62; first compound 1 µM) of 0.704, a relative viability (HCC-15; first compound 0.01 µM) of 0.47 and a relative viability (HCC-15; first compound 0.03162 µM) of 0.481. It also gave a relative viability (HCC-15; first compound 0.1 µM) of 0.596, a relative viability (HCC-15; first compound 0.3162 µM) of 0.481 and a relative viability (HCC-15; first compound 1 µM) of 0.498. The relative viability (UMC-11; first compound 0.01 µM) was 0.352, the relative viability (UMC-11; first compound 0.03162 µM) was 0.316 and the relative viability (UMC-11; first compound 0.1 µM) was 0.353. The relative viability (UMC-11; first compound 0.3162 µM) was 0.36, the relative viability (UMC-11; first compound 1 µM) was 0.336 and the relative viability (NCI-H2126; first compound 0.01 µM) was 0.513. It also gave a relative viability (NCI-H2126; first compound 0.03162 µM) of 0.547, a relative viability (NCI-H2126; first compound 0.1 µM) of 0.53 and a relative viability (NCI-H2126; first compound 0.3162 µM) of 0.554. For the same compound, the relative viability (NCI-H2126; first compound 1 µM) was 0.515, the relative viability (SW 1573; first compound 0.01 µM) was 0.451 and the relative viability (SW 1573; first compound 0.03162 µM) was 0.395. For the same compound, the relative viability (SW 1573; first compound 0.1 µM) was 0.426, the relative viability (SW 1573; first compound 0.3162 µM) was 0.326 and the relative viability (SW 1573; first compound 1 µM) was 0.343. It also gave a relative viability (NCI-H1651; first compound 0.01 µM) of 0.315, a relative viability (NCI-H1651; first compound 0.03162 µM) of 0.366 and a relative viability (NCI-H1651; first compound 0.1 µM) of 0.352. The relative viability (NCI-H1651; first compound 0.3162 µM) was 0.345, the relative viability (NCI-H1651; first compound 1 µM) was 0.333 and the relative viability (EPLC-272H; first compound 0.01 µM) was 0.394. For the same compound, the relative viability (EPLC-272H; first compound 0.03162 µM) was 0.316, the relative viability (EPLC-272H; first compound 0.3162 µM) was 0.286 and the relative viability (EPLC-272H; first compound 1 µM) was 0.298. It also gave a relative viability (NCI-H2347; first compound 0.01 µM) of 0.545, a relative viability (NCI-H2347; first compound 0.03162 µM) of 0.318 and a relative viability (NCI-H2347; first compound 0.1 µM) of 0.376. It also gave a relative viability (NCI-H2347; first compound 0.3162 µM) of 0.419, a relative viability (NCI-H2347; first compound 1 µM) of 0.317 and a relative viability (NCI-H1915; first compound 0.01 µM) of 0.381. The relative viability (NCI-H1915; first compound 0.03162 µM) was 0.387, the relative viability (NCI-H1915; first compound 0.1 µM) was 0.371 and the relative viability (NCI-H1915; first compound 0.3162 µM) was 0.386. The relative viability (NCI-H1915; first compound 1 µM) was 0.369, the relative viability (LU99A; first compound 0.01 µM) was 0.558 and the relative viability (LU99A; first compound 0.03162 µM) was 0.833. For the same compound, the relative viability (LU99A; first compound 0.1 µM) was 0.925, the relative viability (LU99A; first compound 0.3162 µM) was 0.833 and the relative viability (LU99A; first compound 1 µM) was 0.887. The relative viability (NCI-H650; first compound 0.03162 µM) was 0.484, the relative viability (NCI-H650; first compound 0.1 µM) was 0.302 and the relative viability (NCI-H650; first compound 0.3162 µM) was 0.511. It also gave a relative viability (NCI-H650; first compound 1 µM) of 0.413, a relative viability (NCI-H1993; first compound 0.01 µM) of 0.61 and a relative viability (NCI-H1993; first compound 0.03162 µM) of 0.508. It also gave a relative viability (NCI-H1993; first compound 0.1 µM) of 0.506, a relative viability (NCI-H1993; first compound 0.3162 µM) of 0.483 and a relative viability (NCI-H1993; first compound 1 µM) of 0.556. For the same compound, the relative viability (NCI-H358; first compound 0.01 µM) was 0.339, the relative viability (NCI-H358; first compound 0.03162 µM) was 0.35 and the relative viability (NCI-H358; first compound 0.1 µM) was 0.351. For the same compound, the relative viability (NCI-H358; first compound 0.3162 µM) was 0.325 and the relative viability (NCI-H358; first compound 1 µM) was 0.322.
